Assays:
[1] = Selectivity index, ratio of CC50 for human K562 cells to IC50 for Plasmodium falciparum 3D7; assay type: functional
[2] = Selectivity index, ratio of CC50 for human K562 cells to IC50 for Toxoplasma gondii RH-beta1; assay type: functional
[3] = (§1) Cytotoxicity against human K562 cells assessed as radioactive thymidine incorporation after 24 hrs; assay type: cell-based; settings: K562 cells
Toxoplasma gondii = assay: Antitoxoplasmal activity against Toxoplasma gondii RH-beta1 in HFF cells assessed as beta-galactosidase activity after 48 to 72 hrs by colorimetric microtiter assay; assay type: functional, organism-based
Plasmodium falciparum [4] = assay: Antimalarial activity against Plasmodium falciparum 3D7 in human erythrocytes after 48hrs by [3H]hypoxanthine uptake; assay type: functional, organism-based
Plasmodium falciparum [5] = assay: Antimalarial activity against Plasmodium falciparum K1; assay type: functional, organism-based
K562 = assay: as §1; assay type: cell-based; settings: k562, 24 h; for CC50: 24 h
[6] = Toxoplasma gondii, RH-beta1, HFF

| Compound | Selectivity Index [1] | Selectivity Index [2] | CC50 at 24 h [3] [nM] | IC50 (Toxoplasma gondii; hff) [nM] | IC50 (Plasmodium falciparum [4]; Plasmodium falciparum, 3D7) [nM] | IC50 (Toxoplasma gondii; [6]) [nM] | IC50 (Plasmodium falciparum [5]) [nM] | IC50 (Plasmodium falciparum [4]) [nM] | CC50 (K562) [nM] | Activity (K562) |
| --- | --- | --- | --- | --- | --- | --- | --- | --- | --- | --- |
| CCCCCCCCCCCCC[C@@H]1CC(O)CC2(CCC3(C=CC(=O)C=C3)O2)O1 (single isomer, unassigned; form 2) | 35 | 35 | 25800 | 436 | 335 |  |  |  |  |  |
| CCCCCCCCCCCCCC(=O)CC(=O)O[C@@H]1C[C@]2(CCC3(C=CC(=O)C=C3)O2)O[C@]2(CCC3(C=CC(=O)C=C3)O2)C1 | 35 | 35 | < 380 |  | 120 |  |  |  |  |  |
| CCCCCCCCCCCCC[C@@H]1C[C@@H](O)C[C@]2(CCC3(CCC(=O)CC3)O2)O1 (racemic) |  | 35 | 25600 |  | > 5000 | 11000 |  |  |  |  |
| CCCCCCCCCCCCC[C@H]1C[C@@H](O)C[C@]2(CCC3(C=CC(=O)C=C3)O2)O1 [(+)-ACULEATIN B] | 35 | 35 | 27500 |  | 454 | 365 | 430 |  |  |  |
| CCCCCCCCCCCCCC1C[C@@H](O)CC2(CCC3(C=CC(=O)C=C3)O2)O1 (single isomer, unassigned) [ACULEATIN A] | 35 | 35 | 26700 |  |  | 436 |  | 220 |  |  |
| CCCCCCCCCCCCC[C@@H](O)C[C@@H](O)CC(=O)CCc1ccc(O)cc1 | 35 |  | 34500 |  | > 10000 |  |  |  |  |  |
| CCCCCCCCCCCCC[C@@H]1C[C@@H](O)C[C@]2(CCC3(C=CC(=O)C=C3)O2)O1 [ACULEATIN A] |  |  |  | 640 |  |  | 1000 | 478 | 28000 |  |
| O=C1C=CC2(C=C1)CC[C@]1(CC(O)C[C@]3(CCC4(C=CC(=O)C=C4)O3)O1)O2 (some centres undefined) |  | 35 |  |  | 584 | 1500 |  |  |  | Toxic |
| CCCCCCCCCCCCC[C@@H]1C[C@H](O)C[C@@]2(CCC3(C=CC(=O)C=C3)O2)O1 |  |  |  |  |  | 309 | 180 | 288 | 25500 |  |
| CCCCCCCCCCOC(=O)C[C@H]1C[C@H](O)C[C@@]2(CCC3(C=CC(=O)C=C3)O2)O1 (stereo in doubt) | 35 | 35 | 28200 |  | 654 | 341 |  |  |  |  |
| CCCCCCCCCCCCCCCCCCOC(=O)C[C@H]1C[C@@H](O)C[C@]2(CCC3(C=CC(=O)C=C3)O2)O1 (racemic) | 35 | 35 | 15600 |  | 1130 | 3520 |  |  |  |  |
| O=C1C=CC2(C=C1)CC[C@]1(C[C@@H](O)C[C@@]3(CCC4(C=CC(=O)C=C4)O3)O1)O2 | 35 | 35 | 390 |  | 414 | 173 |  |  |  |  |
| CCCCCCC(=O)O[C@@H]1C[C@]2(CCC3(C=CC(=O)C=C3)O2)O[C@]2(CCC3(C=CC(=O)C=C3)O2)C1 | 35 | 35 | < 380 |  | 343 |  |  |  |  |  |
| CCCCCCCCCCCCCC(=O)OC1C[C@]2(CCC3(C=CC(=O)C=C3)O2)O[C@]2(CCC3(C=CC(=O)C=C3)O2)C1 (some centres undefined) | 123 |  | 11300 |  | 92 | 636 |  |  |  |  |
| CCCCCCCCCCCCC[C@@H]1CC(O)CC2(CCC3(C=CC(=O)C=C3)O2)O1 (single isomer, unassigned; form 3) [ACULEATINS B] | 35 | 35 | 30800 |  | 366 | 400 |  |  |  |  |
| CCCCCCCCCCCCCC1C[C@H](O)CC2(CCC3(C=CC(=O)C=C3)O2)O1 (single isomer, unassigned) | 35 |  | 22100 |  | 329 | 627 |  |  |  |  |
| CCCCCCCCCCCCC[C@@H]1CC(O)CC2(CCC3(C=CC(=O)C=C3)O2)O1 (single isomer, unassigned; form 1) [ACULEATINS B] |  |  |  | 377 |  |  |  | 451 | 30200 |  |
| CCCCCCN(CCCCCC)C(=O)C[C@H]1C[C@H](O)C[C@@]2(CCC3(C=CC(=O)C=C3)O2)O1 (racemic) | 35 | 35 | 390 |  | 899 |  |  |  |  |  |
| CCCOC(=O)C[C@H]1C[C@H](O)C[C@@]2(CCC3(C=CC(=O)C=C3)O2)O1 (racemic) |  | 219 | 109000 |  | 1840 | 500 |  |  |  |  |
| CCCCCCCCCCCCCCCCCCOC(=O)C[C@H]1C[C@@H](O)C[C@@]2(CCC3(C=CC(=O)C=C3)O2)O1 (racemic) | 35 | 35 | 17500 |  | 1030 | 3540 |  |  |  |  |
| CCCCCCCCCCC(CCCCCCCCCC)OC(=O)C[C@H]1C[C@H](O)C[C@@]2(CCC3(C=CC(=O)C=C3)O2)O1 (racemic) | 35 | 35 | 22100 |  | 1150 | 4450 |  |  |  |  |
| CCN(CC)CCCC(C)Nc1ccnc2cc(Cl)ccc12 (centres undefined) [CHLOROQUINE] |  |  | 9700 |  |  |  |  |  |  |  |
| CCCCCCCCCCCCCC(=O)O[C@@H]1C[C@]2(CCC3(C=CC(=O)C=C3)O2)O[C@]2(CCC3(C=CC(=O)C=C3)O2)C1 | 109 |  | 8750 |  | 81 | 346 |  |  |  |  |
| CCCCCCC(=O)OC1C[C@]2(CCC3(C=CC(=O)C=C3)O2)O[C@]2(CCC3(C=CC(=O)C=C3)O2)C1 (some centres undefined) |  | 35 | < 380 |  | 331 |  |  |  |  |  |
| CCCCCCCCCCCCCCCCCCOC(=O)C[C@H]1C[C@H](O)C[C@@]2(CCC3(C=CC(=O)C=C3)O2)O1 (racemic) | 35 | 35 | 13900 |  | 770 | 2400 |  |  |  |  |
| CCCCCCCCCCOC(=O)C[C@@H]1C[C@@H](O)C[C@]2(CCC3(C=CC(=O)C=C3)O2)O1 (stereo in doubt) | 35 |  | 41200 |  | 1360 | 1630 |  |  |  |  |

From ChEMBL document CHEMBL1156632, “Enhanced antimalarial activity of novel synthetic aculeatin derivatives” (J Med Chem, 2008)
